For orientation: Km means the substrate concentration at which the rate is half of its maximum.

The assay relates to T1, AeHGO.
T1 construct: full-length, N-terminal His-tag (pCold II), E. coli Transetta, IMAC purified, tag cut not mentioned; cloning primers encode N-terminus MGNSAE and C-terminus NTLKTA
As to the kind of experiment: UPLC product assay, Michaelis-Menten fit. The assay is classed as biochemical, Arnebia euchroma. Conditions: basic assay 50 mM MES-Tris pH 7.5, 37°C. The source says:
UPLC product assay, Michaelis-Menten fit on AeHGO

Where [1] appears, read: oxidation, 500 µM NADP+, apparent.

Consider `CC(C)=CCC/C(=C/Cc1cc(O)ccc1O)CO` [compound 1, (Z)-3’’-OH-GHQ], for which the Km under setting [1] came to 24.7 ± 5.18 µM.

Turning to `NC(=O)c1ccc[n+]([C@@H]2O[C@H](COP(=O)(O)OP(=O)(O)OC[C@H]3O[C@@H](n4cnc5c(N)ncnc54)[C@H](OP(=O)(O)O)[C@@H]3O)[C@@H](O)[C@H]2O)c1` [NADP^+], the Km (oxidation, 500 µM (Z)-3''-OH-GHQ) was found to be 17.8 ± 5.62 µM.

Regarding `CC(C)=CCC/C(C=O)=C\Cc1cc(O)ccc1O` [compound 3, (E)-3’’-oxo-GHQ], the Km (reduction, 500 µM NADPH, apparent, fit at low substrate concentrations because of substrate inhibition) was found to be 9.96 ± 2.87 µM.

For the molecule `CC(C)=CCC/C(=C\Cc1cc(O)ccc1O)CO` [compound 2, (E)-3’’-OH-GHQ], the Km under setting [1] turned out to be 18.7 ± 5.39 µM.

The values are drawn from publication PMC10167036, “The discovery and characterization of AeHGO in the branching route from shikonin biosynthesis to shikonofuran in Arnebia euchroma” (Frontiers in Plant Science, 2023).
